One series deals with Cryptococcus neoformans. The experiment in a line: Antifungal activity in vitro, resazurin growth inhibition screen: Cryptococcus neoformans. The series is classed as cell-based. Particulars: Cryptococcus neoformans B66663; read-out: Inf. F pIC50 (converted). A digest of the protocol:
(§1)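 Growth inhibition is measured with resazurin against untreated fungal culture (100%) and medium blank (0%). Isolates thawed from cryostocks give 10^3 cfu per well in RPMI-MOPS. The dose range peaks at 64 μM in test.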
(In general: Resazurin is reduced to fluorescent resorufin, in cell work by metabolically active cells.)

A further series concerns Trichophyton rubrum. The experiment in a line: Antifungal activity in vitro, resazurin growth inhibition screen: Trichophyton rubrum. The series is classed as cell-based. Particulars: Trichophyton rubrum B68183; read-out: Inf. C pIC50 (converted). The essentials: as §1
For another series, the system named is Aspergillus fumigatus. The experiment in a line: Antifungal activity in vitro, resazurin growth inhibition screen: Aspergillus fumigatus. The series is classed as cell-based. As to conditions: Aspergillus fumigatus B42928; read-out: Inf. E pIC50 (converted). The essentials: as §1
For the next series, the system named is Scedosporium apiospermum. The experiment in a line: Antifungal activity in vitro, resazurin growth inhibition screen: Scedosporium apiospermum. The series is classed as cell-based. As to conditions: Scedosporium apiospermum IHEM3817; read-out: Inf. H pIC50 (converted). A digest of the protocol:
as §1

The test system of another series is Sporothrix schenkii. The experiment in a line: Antifungal activity in vitro, resazurin growth inhibition screen: Sporothrix schenkii. The class given is cell-based. Particulars: Sporothrix schenkii B62482; read-out: Inf. A pIC50 (converted). The essentials: as §1
For a further series, the system named is Microsporum canis. The experiment in a line: Antifungal activity in vitro, resazurin growth inhibition screen: Microsporum canis. The series is classed as cell-based. Particulars: Microsporum canis B68128; read-out: Inf. B pIC50 (converted). A digest of the protocol:
as §1

The next series concerns Scedosporium prolificans. The experiment in a line: Antifungal activity in vitro, resazurin growth inhibition screen: Scedosporium prolificans. Particulars: Lomentospora prolificans; Scedosporium prolificans IHEM21157; read-out: Inf. I pIC50 (converted). The series is classed as cell-based. The essentials: as §1
A further series has as its system Rhizomucor miehei. The experiment in a line: Antifungal activity in vitro, resazurin growth inhibition screen: Rhizomucor miehei. Particulars: Rhizomucor miehei IHEM13391; read-out: Inf. K pIC50 (converted). The series is classed as cell-based. A digest of the protocol: as §1
Series [1] has as its system Trichophyton mentagrophytes. The experiment in a line: Antifungal activity in vitro, resazurin growth inhibition screen: Trichophyton mentagrophytes. The series is classed as cell-based. As to conditions: Trichophyton mentagrophytes B70554; read-out: Inf. G pIC50 (converted). A digest of the protocol: as §1
The next series has as its system Rhizopus oryzae. The experiment in a line: Antifungal activity in vitro, resazurin growth inhibition screen: Rhizopus oryzae. The series is classed as cell-based. As to conditions: Rhizopus arrhizus; Rhizopus oryzae IHEM5223; read-out: Inf. J pIC50 (converted). A digest of the protocol:
as §1

Another series deals with Candida parapsilosis. The experiment in a line: Antifungal activity in vitro, resazurin growth inhibition screen: Candida parapsilosis. The class given is cell-based. Particulars: Lodderomyces parapsilosis; Candida parapsilosis B66126; read-out: Inf. D pIC50 (converted). A digest of the protocol: as §1

Consider `O=C1OCc2ccc(C3=NCc4c(F)cccc4-n4cccc43)cc21` [Compound 63, 6-(7-fluoro-6H-pyrrolo[1,2-a][1,4]benzodiazepin-4-yl)-1(3H)-isobenzofuranone], for which the melting point – broadly, the temperature of the solid-liquid transition – fell in the range of 224.6 to 246 °C. In the series with Cryptococcus neoformans, the IC50 was greater than 64.6 µM. In the series on Trichophyton rubrum, the IC50 is 7.41 µM. Moreover, in the series with Aspergillus fumigatus, the IC50 was greater than 64.6 µM. Moreover, the IC50 in the series with Scedosporium apiospermum was 0.933 µM. Besides, the IC50 in the series with Sporothrix schenkii was greater than 64.6 µM. Moreover, in the series on Microsporum canis, the IC50 is 55 µM. Further, the IC50 in the series on Scedosporium prolificans was 1.58 µM. Besides, in the series on Rhizomucor miehei, the IC50 is greater than 64.6 µM. For the same molecule, the IC50 in series [1] was greater than 64.6 µM. In the series with Rhizopus oryzae, the IC50 is greater than 64.6 µM. Moreover, the IC50 in the series on Candida parapsilosis was greater than 64.6 µM.

Consider `O=C1OCc2cc(C3=NCc4c(Cl)cccc4-n4cccc43)ccc21` [Compound 65, 5-(7-chloro-6H-pyrrolo[1,2-a][1,4]benzodiazepin-4-yl)-1(3H)-isobenzofuranone], for which the melting point fell in the range of 251.2 to 253 °C. Moreover, the IC50 in the series on Cryptococcus neoformans is 10.2 µM. Further, the IC50 in the series on Trichophyton rubrum was 1.82 µM. Moreover, the IC50 in the series on Aspergillus fumigatus is 0.372 µM. Moreover, the IC50 in the series with Scedosporium apiospermum was 0.759 µM. In addition, the IC50 in the series on Sporothrix schenkii was 7.76 µM. For the same molecule, the IC50 with Microsporum canis is 2.04 µM. Besides, in the series on Scedosporium prolificans, the IC50 is 0.589 µM. Further, the IC50 with Rhizomucor miehei was greater than 64.6 µM. Further, the IC50 in [1] was 1.91 µM. Also, the IC50 in the series with Rhizopus oryzae is greater than 64.6 µM. In addition, in the series with Candida parapsilosis, the IC50 was 5.13 µM.

Molecule `FC1(F)CCc2cc(C3=NCc4c(Cl)cccc4-n4cccc43)ccc2O1` [Compound 69, 7-chloro-4-(2,2-difluoro-3,4-dihydro-2H-1-benzopyran-6-yl)-6H-pyrrolo[1,2-a]-[1,4]benzodiazepine] had a melting point of 199.7 to 201.2 °C. For the same molecule, the IC50 in the series on Cryptococcus neoformans was 0.0955 µM. Moreover, the IC50 with Trichophyton rubrum is 0.123 µM. The IC50 with Aspergillus fumigatus is 0.129 µM. Further, in the series with Scedosporium apiospermum, the IC50 is 0.229 µM. Moreover, the IC50 with Sporothrix schenkii is 1.05 µM. For the same molecule, the IC50 with Microsporum canis was 0.129 µM. Further, the IC50 in the series with Scedosporium prolificans was 0.708 µM. The IC50 with Rhizomucor miehei is 0.468 µM. Moreover, the IC50 in [1] was 0.38 µM. For the same molecule, the IC50 in the series on Rhizopus oryzae is 1.2 µM. Further, the IC50 in the series on Candida parapsilosis was 0.708 µM.

Take `Cn1c(=O)oc2ccc(C3=NCc4c(Cl)cccc4-n4cccc43)cc21` [Compound 80, 5-(7-chloro-6H-pyrrolo[1,2-a][1,4]benzodiazepin-4-yl)-3-methyl-2(3H)-benzoxazolone]: the melting point was in the range of 218.6 to 221 °C. In the series on Cryptococcus neoformans, the IC50 was greater than 64.6 µM. Moreover, the IC50 in the series with Trichophyton rubrum is 1.15 µM. For the same molecule, in the series on Aspergillus fumigatus, the IC50 is 0.562 µM. Further, the IC50 in the series with Scedosporium apiospermum is 56.2 µM. The IC50 with Sporothrix schenkii was 9.12 µM. In addition, in the series with Microsporum canis, the IC50 was 1.58 µM. Besides, the IC50 in the series with Scedosporium prolificans was 22.4 µM. Further, in the series with Rhizomucor miehei, the IC50 is greater than 64.6 µM. Further, the IC50 in [1] was 5.37 µM. Further, in the series with Rhizopus oryzae, the IC50 is greater than 64.6 µM. Moreover, the IC50 in the series on Candida parapsilosis is 22.4 µM.

Molecule `Fc1cc(Cl)c2c(c1)-n1cccc1C(c1ccc3c(c1)CCC3(F)F)=NC2` [Compound 88, 7-chloro-4-(1,1-difluoro-2,3-dihydro-1H-inden-5-yl)-9-fluoro-6H-pyrrolo[1,2-a]-[1,4]benzodiazepine] displayed a melting point of 170.2 to 171.8 °C. For the same molecule, the IC50 in the series with Cryptococcus neoformans is 0.407 µM. The IC50 in the series on Trichophyton rubrum was 0.447 µM. Further, the IC50 in the series with Aspergillus fumigatus was 0.417 µM. The IC50 in the series on Scedosporium apiospermum was 0.17 µM. Further, the IC50 in the series with Sporothrix schenkii is 53.7 µM. The IC50 with Microsporum canis is 0.537 µM. Besides, the IC50 in the series with Scedosporium prolificans was 2.57 µM. For the same molecule, the IC50 in the series with Rhizomucor miehei is greater than 64.6 µM. Also, the IC50 in series [1] was 0.871 µM. Also, the IC50 in the series with Rhizopus oryzae is greater than 64.6 µM. The IC50 in the series on Candida parapsilosis is greater than 64.6 µM.

These data come from patent US9040524B2, “Antifungal 5,6-dihydro-4H-pyrrolo[1,2-a][1,4]-benzodiazepines and 6H-pyrrolo[1,2-a][1,4]benzodiazepines substituted with bicycle benzene derivatives” (JANSSEN PHARMACEUTICA NV, priority 2010, dated 2015).
